According to patent US8367831B2, “Heterocyclic compound or salt thereof and intermediate thereof” (priority 2006, dated 2013):
Converted amounts (≈) assume the structure as drawn. Structures can show the parent of a compound that is named as a salt. Where two headings read alike, the source gives them in different places.

How the values were obtained:
Format in all cases: cell-based
S. aureus F-3095 = assay: Susceptibility test 1: MIC by micro-dilution method; conditions: Staphylococcus aureus
Protocol: (§1) Test substances were initially dissolved in dimethylsulfoxide. Antibacterial activities (MICs) of the same compounds were determined by the micro-dilution method as recommended by the Japanese Society of Chemotherapy.
(§2) The bacteria cultured on Mueller-Hinton agar (MHA) plates at 35° C. overnight were suspended in sterile physiological saline in a concentration that was equivalent to 0.5 McFarland. The bacterial inoculum was prepared by 10-fold dilution of this suspension. Approximately 0.005 mL of the bacterial inoculum was inoculated into Cation-adjusted Mueller-Hinton broth (CAMHB, 100 μL/well) containing the test substance and was incubated at 35° C. overnight. The lowest concentration of the test substance at which no bacterial growth was macroscopically observed was determined as the MIC.

S. aureus FDA209P = assay: as above; conditions: Staphylococcus aureus, read-out: MIC (μg/mL) S. aureus FDA209P
Protocol: as §1, §2

Cytotoxicity test (XTT) = conditions: African green monkey, vero cells, 3 days incubation, absorbance 450 nm, read-out: CC50 (concentration when cell proliferation was inhibited by 50%)
Protocol: Each test substance was dissolved in dimethyl sulfoxide and was prepared to each concentration with E-MEM containing 10% FBS, and then 0.1 mL of this solution was dispensed into each well of a 96-well microplate. A vero cell suspension containing 3×10^4 cells/mL was prepared with E-MEM containing 10% FBS, and 0.1 mL of the suspension was inoculated to each well. After incubation in 5% CO2 at 37° C. for 3 days, 50 μL of E-MEM containing 1 mg/mL of 2,3-bis-(2-methoxy-4-nitro-5-sulfophenyl)-5-[(phenylamino)carbonyl]-2H-tetrazolium, inner salt, monosodium salt (XTT) and 25 μM of phenazine methosulfate (PMS) was added to each well. After about 2 hours, the absorbance at 450 nm was measured with a microplate reader.
The absorbance ratio of each well supplied with the test substance and the control not containing the test substance was calculated, and the concentration of each compound when cell proliferation was inhibited by 50% (CC50; μg/mL) was calculated.

[1] = F3095, read-out: MIC (μg/mL) S. aureus F-3095
[2] = F3095, F-3095 (MDRSA), CAMHB, 35° C. overnight, lowest concentration with no macroscopic growth, read-out: MIC (μg/mL) S. aureus F-3095
[3] = CAMHB, 35° C. overnight, lowest concentration with no macroscopic growth

Row | MIC (S. aureus F-3095; [2]) [µg/mL] | MIC (S. aureus FDA209P; [3]) [µg/mL] | Compound | MIC (S. aureus F-3095; [1]) [µg/mL] | MIC (S. aureus FDA209P) [µg/mL] | CC50 at 3 days (Cytotoxicity test (XTT)) [µg/mL]
1 |  |  | COc1cnc2ccc(=O)n(CCN3CCC(NCc4cc5c(cn4)OCCO5)[C@H](O)C3)c2c1 (stereo in doubt) [Example 95, 1-(2-((3R,4R)-4-((2,3-dihydro(1,4)dioxino(2,3-c)pyridin-7-ylmethyl)amino)-3-hydroxypiperidin-1-yl)ethyl)-7-methoxy-1,5-naphthyridin-2(1H)-one] | 0.0625 (≈ 0.134 µM) | 0.0313 (≈ 0.0669 µM) | ≥ 51.2
2 |  |  | Cc1ccc(CNC2CCN(CCn3c(=O)ccc4ccncc43)CC2)cc1F [Example 8, 1-(2-(4-((3-fluoro-4-methylbenzyl)amino)piperidin-1-yl)ethyl)-1,7-naphthyridin-2(1H)-one hydrochloride] | 0.0313 | 0.0313 | ≥ 51.2
3 |  |  | COc1ccc2ncc(=O)n(CCN3CCC(NCc4cc5c(cn4)OCCO5)CC3)c2n1 [Example 10, 4-(2-(4-((2,3-dihydro(1,4)dioxino(2,3-c)pyridin-7-ylmethyl)amino)piperidin-1-yl)ethyl)-6-methoxypyrido(2,3-b)pyrazin-3(4H)-one hydrochloride] | 0.0156 | 0.0156 | ≥ 51.2
4 |  |  | COc1cnc2ccc(=O)n(CCN3CCC(NCc4ccc(C)c(F)c4)CC3)c2c1 [Example 17, 1-(2-(4-((3-fluoro-4-methylbenzyl)amino)piperidin-1-yl)ethyl)-7-methoxy-1,5-naphthyridin-2(1H)-one hydrochloride] | 0.0313 | 0.0039 | 
5 | 0.0313 (≈ 0.0645 µM) | 0.0313 (≈ 0.0645 µM) | O=C1CSc2cc(Cl)c(CNC3CCN(CCn4c(=O)ccc5ccncc54)CC3)nc2N1 [Example 30, 7-chloro-6-(((1-(2-(2-oxo-1,7-naphthyridin-1(2H)-yl)ethyl)piperidin-4-yl)amino)methyl)-2H-pyrido(3,2-b)(1,4)thiazin-3(4H)-one] |  |  | ≥ 51.2
6 | 0.0313 (≈ 0.0695 µM) | 0.0313 (≈ 0.0695 µM) | O=C1CSc2ccc(CNC3CCN(CCn4c(=O)ccc5ccncc54)CC3)nc2N1 [Example 33, 6-(((1-(2-(2-oxo-1,7-naphthyridin-1(2H)-yl)ethyl)piperidin-4-yl)amino)methyl)-2H-pyrido(3,2-b)(1,4)thiazin-3(4H)-one] |  |  | ≥ 51.2
7 |  |  | O=c1ccc2ccncc2n1CCN1CCC(NCc2cc(-c3cccs3)on2)CC1 [Example 35, 1-(2-(4-(((5-(2-thienyl)isoxazol-3-yl)methyl)amino)piperidin-1-yl)ethyl)-1,7-naphthyridin-2(1H)-one hydrochloride] | 0.0313 | 0.0313 | ≥ 51.2
8 |  |  | COc1ccc2ccc(=O)n(CCN3CCC(NCc4ccc5c(c4)OCCO5)CC3)c2n1 [Example 44, 1-(2-(4-((2,3-dihydro-1,4-benzodioxin-6-ylmethyl)amino)piperidin-1-yl)ethyl)-7-methoxy-1,8-naphthyridin-2(1H)-one hydrochloride] | 0.0313 | 0.0313 | 
9 |  |  | COc1ccc2ccc(=O)n(CCN3CCC(NCc4cc5c(cn4)OCCO5)CC3)c2n1 [Example 45, 1-(2-(4-((2,3-dihydro(1,4)dioxino(2,3-c)pyridin-7-ylmethyl)amino)piperidin-1-yl)ethyl)-7-methoxy-1,8-naphthyridin-2(1H)-one hydrochloride] | 0.0625 | 0.0313 | 
10 | 0.0078 (≈ 0.0162 µM) | 0.0039 (≈ 0.0081 µM) | COc1ccc2ncc(=O)n(CCN3CCC(NCc4ccc5c(n4)NC(=O)CS5)CC3)c2n1 [Example 55, 6-(((1-(2-(6-methoxy-3-oxopyrido(2,3-b)pyrazin-4(3H)-yl)ethyl)piperidin-4-yl)amino)methyl)-2H-pyrido(3,2-b)(1,4)thiazin-3(4H)-one] |  |  | ≥ 51.2
11 |  |  | COc1cnc2ccc(=O)n(CCN3CCC(NCc4ccc5c(n4)NC(=O)CO5)CC3)c2c1 [Example 79, 1-(2-(4-((3-oxo-3,4-dihydro-2H-pyrido(3,2-b)(1,4)oxazin-6-yl)methylamino)piperidin-1-yl)ethyl)-7-methoxy-1,5-naphthyridin-2(1H)-one hydrochloride] | 0.0156 | 0.0078 | ≥ 51.2
12 |  |  | COc1cnc2ccc(=O)n(CCN3CCC(NCc4cc5c(cn4)OCCCO5)CC3)c2c1 [Example 118, 1-(2-(4-((3,4-dihydro-2H-(1,4)dioxepino(2,3-c)pyridin-8-ylmethyl)amino)piperidin-1-yl)ethyl)-7-methoxy-1,5-naphthyridin-2(1H)-one hydrochloride] | 0.0625 | 0.0625 | 
13 |  |  | CCc1ccc(CNC2CCN(CCn3c(=O)ccc4ncc(OC)cc43)CC2)nc1 [Example 123, 1-(2-(4-(((5-ethylpyridin-2-yl)methyl)amino)piperidin-1-yl)ethyl)-7-methoxy-1,5-naphthyridin-2(1H)-one hydrochloride] | 0.125 | 0.0313 | 
14 | 0.0156 (≈ 0.0335 µM) | 0.0078 (≈ 0.0168 µM) | COc1cnc2ccc(=O)n(CCN3CCC(NCc4cc(-c5ccsc5)on4)CC3)c2c1 [Example 133, 7-methoxy-1-(2-(4-(((5-(3-thienyl)isoxazol-3-yl)methyl)amino)piperidin-1-yl)ethyl)-1,5-naphthyridin-2(1H)-one] |  |  | 
15 |  |  | CCc1ncc(CNC2CCN(CCn3c(=O)ccc4ncc(OC)cc43)CC2)cc1F [Example 137, 1-(2-(4-(((6-ethyl-5-fluoropyridin-3-yl)methyl)amino)piperidin-1-yl)ethyl)-7-methoxy-1,5-naphthyridin-2(1H)-one hydrochloride] | 0.0625 | 0.0313 | 
16 |  |  | COc1cnc2ccc(=O)n(CCN3CCC(NCc4cncc(-c5cccs5)c4)CC3)c2c1 [Example 141, 7-methoxy-1-(2-(4-(((5-(2-thienyl)pyridin-3-yl)methyl)amino)piperidin-1-yl)ethyl)-1,5-naphthyridin-2(1H)-one hydrochloride] | 0.0313 | 0.0313 | 
17 | 0.0313 (≈ 0.0715 µM) | 0.0313 (≈ 0.0715 µM) | O=c1ccc2ncc(F)cc2n1CCN1CCC(NCc2cc(-c3ccco3)on2)CC1 [Example 143, 7-fluoro-1-(2-(4-(((5-(2-furyl)isoxazol-3-yl)methyl)amino)piperidin-1-yl)ethyl)-1,5-naphthyridin-2(1H)-one] |  |  | 
18 |  |  | COc1cnc2ccc(=O)n(CCN3CCC(NCc4cc5c(cn4)OCCC5)CC3)c2c1 [Example 144, 1-(2-(4-((3,4-dihydro-2H-pyrano(2,3-c)pyridin-6-ylmethyl)amino)piperidin-1-yl)ethyl)-7-methoxy-1,5-naphthyridin-2(1H)-one hydrochloride] | 0.0313 | 0.0313 | 
19 |  |  | Cc1cc(=O)n(CCN2CCC(NCc3cc4c(cn3)OCCO4)CC2)c2cc(F)cnc12 [Example 146, 1-(2-(4-((2,3-dihydro(1,4)dioxino(2,3-c)pyridin-7-ylmethyl)amino)piperidin-1-yl)ethyl)-7-fluoro-4-methyl-1,5-naphthyridin-2(1H)-one hydrochloride] | 0.0625 | 0.0625 | 
20 | 0.0625 (≈ 0.136 µM) | 0.0313 (≈ 0.0681 µM) | COc1cnc2ccc(=O)n(CCN3CCC(NCc4cncc(-c5ccco5)c4)CC3)c2c1 [Example 147, 1-(2-(4-(((5-(2-furyl)pyridin-3-yl)methyl)amino)piperidin-1-yl)ethyl)-7-methoxy-1,5-naphthyridin-2(1H)-one] |  |  | 
21 |  |  | O=c1ccc2ncc(F)cc2n1CCN1CCC(NCc2cc3c(cn2)CCCO3)CC1 [Example 162, 1-(2-(4-((3,4-dihydro-2H-pyrano(3,2-c)pyridin-7-ylmethyl)amino)piperidin-1-yl)ethyl)-7-fluoro-1,5-naphthyridin-2(1H)-one hydrochloride] | 0.0625 | 0.0313 | 
